Measured values taken from patent US9358239B2, “NiSOD-like compound and its derivatives for suppressing abnormal protein aggregation, recovering cell viability, increasing mature neuron number and neurite outgrowth length and protecting dopaminergic cells by reducing oxidative stress or reactive oxygen species in brain tissues” (National Taiwan Normal University, priority 2012, dated 2016).

What was measured:
ATXN3/Q75 aggregation = assay: ATXN3/Q75-GFP aggregation, high-content analysis in Flp-In 293 cells; assay type: cell-based, human; conditions: at 100 nM
Excerpt: For therapies toward the polyQ diseases, we aimed to screen compounds potentially inhibiting polyQ aggregation. As removal of the N-terminal ATXN3 was required for ATXN3 aggregation, GFP-tagged ATXN3/Q14-75 C-terminal fragment was cloned to establish Flp-In 293 cells with inducible ATXN3/Q14-75-GFP expression. Refer to FIG. 2. The GFP antibody detected 40˜57 kDa ATXN3/Q14-75-GFP proteins in doxycycline (+Dox) induced ATXN3 cells. Refer to FIGS. 3A and 3B. While the expressed ATXN3/Q14 was primarily diffused, the expressed ATXN3/Q75-GFP formed aggregates. For high content aggregation analysis, these ATXN3/Q75 cells were seeded onto 96-well plate, treated with tested compounds WCt003, WCt006 and WCt021 for 8 hours, and doxycycline was added to induce ATXN3/Q75-GFP expression for 6 days. Oxaliplatin (5 μM, Sigma) was added for aggregate accumulation through inhibition of DNA synthesis. Then cells were stained with Hochest 33342 (0.1 μg/ml, Sigma) and aggregation percentage was assessed by high-content analysis (HCA) system, with excitation/emission wavelengths at 482/536 (GFP).
Refer to FIG. 4. Cells expressing ATXN3/Q75 were examined with tested compounds WCt003, WCt006 and WCt021. […] WCt003 and WCt006 reduced the ATXN3/Q75 aggregation to 80% to 84% at 10 nM and 100 nM, and WCt021 reduced the ATXN3/Q75 aggregation to 80% to 84% at 1 nM to 100 nM. […]

[1] = DPPH free radical scavenging assay; assay type: biochemical; conditions: absorbance at 517 nm
Excerpt: For DPPH (1,1-diphenyl-2-picryl hydrazyl) scavenging activity, the odd electron in the stable DPPH free radical gives a strong absorption maximum at 517 nm and is purple in color. The DPPH assay measured scavenging ability of the antioxidants towards the stable radical. The free radical DPPH was reduced when it reacted with antioxidants and results in decrease in absorbance at 517 nm. The degree of discoloration indicated the scavenging potential of the antioxidant compounds. Refer to FIG. 7.

[2] = SOD Assay Kit-WST, SOD(-like) activity; assay type: biochemical; conditions: WST-1 reduction
Excerpt: For SOD activity, SOD enzyme from human erythrocytes (Sigma, catalog number 59636) and HEK-293 cell lysate (5×10^6/ml) were used as comparison. The SOD Assay Kit-WST from Dojindo was used to determine SOD activity. The assay utilizes WST-1 [2-(4-iodophenyl)-3-(4-nitrophenyl)-5-(2,4)-disulfophenyl-2H-tetrazolium, monosodium salt] that produces a water-soluble formazan dye upon reduction with the superoxide anion. The rate of the reduction of WST-1 with O2^− was linearly related to the xanthine oxidase (XO) activity, and this reduction was inhibited by SOD. Therefore, the IC50 (50% inhibition activity of SOD or SOD-like materials) can be determined by the colorimetric method. Refer to FIG. 6A. […] Refer to FIG. 6B. […] Refer to FIG. 6C.

**Q.** With `O=C(CCCCCCC(=O)Nc1ccccc1)NO` [SAHA, suberoylanilide hydroxamic acid] as the compound, how does the “ATXN3/Q75 aggregation as compared to untreated cells” value (ATXN3/Q75 aggregation) read?
**A.** 85%

**Q.** Which EC50 [1] does the source give for `O=c1c(O)c(-c2ccc(O)cc2)oc2cc(O)cc(O)c12` [kaempferol, reference compound] here?
**A.** 26.7 µM

**Q.** Which “IC50 (SOD activity)” value [2] does the source give for “SOD enzyme from human erythrocytes: SOD enzyme from human erythrocytes (Sigma), used as comparison” here?
**A.** 0.38 U/ml
